Assay results: patent publication US10065990B2, “Cyclic peptide compound, and preparation method, pharmaceutical composition and use thereof” (HANGZHOU GUANYU BIO-MEDICAL CO., LTD, priority 2013, dated 2018)
Where two headings read alike, the source gives them in different places.

Tests used:
[1] = test system: Bel-7402 (human hepatoma cells); assay: MTT cancer cell growth inhibition; type: cell-based; conditions: MTT, 72 hours incubation, Bel-7402 cells, read-out: GI50 Bel-7402
Outline: (§1)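 72 h exposure, final drug 10^−5–10^−10 M, triplicate wells; 1500 cells/well plated the day before; medium DMEM or 1640 + 10% FBS; 37° C./5% CO2. MTT (5 mg/ml stock) 4 h, DMSO solubilisation, A570 → % viability → GI50.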

[2] = test system: A549 (human lung cancer cells); assay: MTT cancer cell growth inhibition; type: cell-based; conditions: MTT
Outline: as §1

[3] = test system: Huh-7 (human hepatoma cells); assay: MTT cancer cell growth inhibition; type: cell-based; conditions: MTT, 72 hours incubation, Huh-7 cells, read-out: GI50 Huh-7
Outline: as §1

[4] = test system: U937 (human leukemia cells); assay: MTT cancer cell growth inhibition; type: cell-based; conditions: MTT
Outline: as §1

[5] = test system: HCC827 (human non-small cell lung cancer cells); assay: MTT cancer cell growth inhibition; type: cell-based; conditions: MTT, 72 hours incubation, HCC827 cells, read-out: GI50 HCC827
Outline: as §1

[6] = test system: Hela (human cervical cancer cells); assay: MTT cancer cell growth inhibition; type: cell-based; conditions: MTT
Outline: as §1

[7] = test system: DU145 (human prostate cancer cells); assay: MTT cancer cell growth inhibition; type: cell-based; conditions: MTT
Outline: as §1

[8] = test system: MCF-7 (human breast cancer cells); assay: MTT cancer cell growth inhibition; type: cell-based
Outline: as §1

[9] = test system: SGC-7901 (human gastric cancer cells); assay: MTT cancer cell growth inhibition; type: cell-based; conditions: MTT, 72 hours incubation, SGC-7901 cells, read-out: GI50 SGC-7901
Outline: as §1

[10] = test system: MDA-MB-231 (breast cancer cells); assay: MTT cancer cell growth inhibition; type: cell-based
Outline: as §1

[11] = test system: HT1080 (human fibrosarcoma cells); assay: MTT cancer cell growth inhibition; type: cell-based; conditions: MTT
Outline: as §1

[12] = test system: N-87 (human gastric cancer cells); assay: MTT cancer cell growth inhibition; type: cell-based; conditions: MTT, 72 hours incubation, N-87 cells, read-out: GI50 N-87
Outline: as §1

[13] = test system: BGC-823 (human gastric cancer cells); assay: MTT cancer cell growth inhibition; type: cell-based; conditions: MTT
Outline: as §1

[14] = test system: MOLT-4 (human acute lymphoblastic leukemia cells); assay: MTT cancer cell growth inhibition; type: cell-based; conditions: MTT
Outline: as §1

[15] = test system: PANC-1 (Pac-1, human pancreatic cancer cells); assay: MTT cancer cell growth inhibition; type: cell-based; conditions: MTT
Outline: as §1

HDAC1 = HDAC1 (Homo sapiens, UniProt Q13547); assay: HDAC biochemical activity measurement (fluorescent substrate deacetylation);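 also: fluorogenic acetyl-lysine substrate (20 µM) deacetylated by HDAC1, then developer releases fluorophore read at 360 nm excitation and 460 nm emission, inhibitor incubated 30 min at 37 °C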
HDAC1, sequence (Q13547 whole entry, species assumed): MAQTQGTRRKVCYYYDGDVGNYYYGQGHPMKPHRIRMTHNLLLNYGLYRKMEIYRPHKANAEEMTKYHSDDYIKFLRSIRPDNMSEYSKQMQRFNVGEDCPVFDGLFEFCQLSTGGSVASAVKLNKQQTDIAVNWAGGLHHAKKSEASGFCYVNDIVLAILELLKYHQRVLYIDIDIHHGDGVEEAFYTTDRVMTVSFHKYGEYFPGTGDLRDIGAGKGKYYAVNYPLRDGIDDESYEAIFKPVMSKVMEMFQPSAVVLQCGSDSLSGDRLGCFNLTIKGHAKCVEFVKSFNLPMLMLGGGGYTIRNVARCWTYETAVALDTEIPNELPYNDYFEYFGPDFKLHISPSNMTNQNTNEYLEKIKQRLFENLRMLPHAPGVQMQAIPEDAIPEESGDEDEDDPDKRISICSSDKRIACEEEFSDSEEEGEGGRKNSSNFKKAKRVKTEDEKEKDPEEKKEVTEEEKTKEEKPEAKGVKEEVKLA

HDAC11 = target: T1, HDAC11 (Homo sapiens, UniProt Q96DB2); assay: as above;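 also: HDAC11 enzyme acting on an acetyl-lysine fluorogenic substrate, then a developer frees the fluorophore, read at excitation 360 nm and emission 460 nm, IC50 over a compound dilution series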
T1 sequence (Q96DB2 1-347): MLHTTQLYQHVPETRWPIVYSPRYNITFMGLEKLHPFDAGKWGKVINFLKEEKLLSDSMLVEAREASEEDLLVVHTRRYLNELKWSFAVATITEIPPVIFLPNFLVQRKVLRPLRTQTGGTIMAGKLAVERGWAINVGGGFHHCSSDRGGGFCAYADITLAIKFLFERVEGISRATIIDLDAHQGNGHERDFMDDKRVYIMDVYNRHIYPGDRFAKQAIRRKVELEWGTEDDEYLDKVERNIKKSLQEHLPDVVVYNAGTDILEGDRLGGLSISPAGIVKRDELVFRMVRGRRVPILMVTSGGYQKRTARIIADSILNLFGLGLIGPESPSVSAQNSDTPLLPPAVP

HDAC8 = target: T2, HDAC8 (Homo sapiens, UniProt Q9BY41); assay: as above; conditions: 37° C. 30 minutes
T2 sequence (Q9BY41 1-377): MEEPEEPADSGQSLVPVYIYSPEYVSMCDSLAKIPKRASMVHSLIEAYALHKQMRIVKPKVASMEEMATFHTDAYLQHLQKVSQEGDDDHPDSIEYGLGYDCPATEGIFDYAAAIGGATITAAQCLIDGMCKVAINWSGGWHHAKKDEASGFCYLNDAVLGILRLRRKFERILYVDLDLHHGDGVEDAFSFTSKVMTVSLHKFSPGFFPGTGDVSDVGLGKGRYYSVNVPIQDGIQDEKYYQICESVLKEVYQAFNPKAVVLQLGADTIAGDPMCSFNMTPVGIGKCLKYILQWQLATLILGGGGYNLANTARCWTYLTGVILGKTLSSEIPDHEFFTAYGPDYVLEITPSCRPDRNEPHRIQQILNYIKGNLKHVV

[16] = Homo sapiens, A549, 72 h, 72 hours incubation, read-out: GI50 A54
[17] = Homo sapiens, U-937, 72 h, 72 hours incubation, read-out: GI50 U93
[18] = Homo sapiens, HeLa, 72 h, 72 hours incubation, read-out: GI50 Hela
[19] = Homo sapiens, DU-145, 72 h, 72 hours incubation, read-out: GI50 Du1
[20] = Homo sapiens, MCF7, 72 h, 72 hours incubation, read-out: GI50 MCF
[21] = read-out: GI50 MDA-MB-231, MTT, 72 hours incubation, MDA-MB-231 cells
[22] = Homo sapiens, HT-1080, 72 h, 72 hours incubation, read-out: GI50 HT1
[23] = Homo sapiens, MOLT-4, 72 h, 72 hours incubation, read-out: GI50 Mol
[24] = Homo sapiens, PANC-1, 72 h, 72 hours incubation, read-out: GI50 PAN
[25] = HDAC1, 37° C. 30 minutes, read-out: IC50 HDAC1
[26] = Homo sapiens, A549, 72 h, A549 cells, 72 hours incubation, read-out: GI50 A54
[27] = Homo sapiens, U-937, 72 h, U937 cells, 72 hours incubation, read-out: GI50 U93
[28] = Homo sapiens, HeLa, 72 h, Hela cells, 72 hours incubation, read-out: GI50 Hela
[29] = Homo sapiens, MDA-MB-231, 72 h, read-out: GI50 MDA-MB-231, MTT, 72 hours incubation, MDA-MB-231 cells
[30] = Homo sapiens, HT-1080, 72 h, HT1080 cells, 72 hours incubation, read-out: GI50 HT1
[31] = Homo sapiens, BGC-823, 72 h, BGC-823 cells, 72 hours incubation, read-out: GI50 BG
[32] = Homo sapiens, MOLT-4, 72 h, MOLT-4 cells, 72 hours incubation, read-out: GI50 Mol
[33] = Homo sapiens, PANC-1, 72 h, PANC-1 cells, 72 hours incubation, read-out: GI50 PAN
[34] = read-out: IC50 HDAC11, HDAC11, 37° C. 30 minutes

GI50 [1] [µM] | GI50 [2, 16] [µM] | GI50 [3] [µM] | GI50 [4, 17] [µM] | GI50 [5] [µM] | GI50 [6, 18] [µM] | GI50 [7, 19] [µM] | GI50 [8, 20] [µM] | GI50 [9] [µM] | GI50 [10, 21] [µM] | GI50 [11, 22] [µM] | IC50 (HDAC1; [25]) [µM] | IC50 (HDAC11) [µM] | IC50 (HDAC8) [µM] | GI50 ([1]; Homo sapiens, Bel-7402, 72 h) [µM] | GI50 ([3]; Homo sapiens, Huh-7, 72 h) [µM] | GI50 ([5]; Homo sapiens, HCC827, 72 h) [µM] | GI50 ([9]; Homo sapiens, SGC-7901, 72 h) [µM] | GI50 [10, 29] [µM] | GI50 ([12]; Homo sapiens, 72 h) [µM] | Compound | other results
0.042 | 0.06 | 0.035 | 0.02 | 0.042 | 0.07 | 0.02 | 0.06 | 0.069 | 0.035 | 0.04 | 0.081 | 0.093 | 0.014 | – | – | – | – | – | – | C/C=C1\NC(=O)c2nc(ccc2F)CNC(=O)C[C@@H](/C=C/CCSC(C)=O)OC(=O)[C@H](C(C)C)NC1=O [Example 48] | GI50 [12]: 0.081 µM; GI50 ([13]; 72 hours incubation, read-out: GI50 BG): 0.08 µM; GI50 [14, 23]: 0.03 µM; GI50 [15, 24]: 0.04 µM
– | – | – | – | – | – | – | – | – | – | – | 0.045 | 0.056 | 0.052 | 0.079 | 0.061 | 0.066 | 0.024 | 0.037 | 0.096 | C/C=C1\NC(=O)c2cccc(n2)CNC(=O)C[C@@H](/C=C/CCSC(=O)CCCCCCC)OC(=O)[C@H](CCSC)NC1=O [Compound 240] | GI50 [2, 26]: 0.01 µM; GI50 ([2]; Homo sapiens, A549, 72 h, 72 hours, present invention, read-out: GI50 A549, a): 0.036 µM; GI50 ([4]; Homo sapiens, U-937, 72 h, 72 hours, present invention, read-out: GI50 U937, a): 0.012 µM; GI50 [4, 27]: 0.03 µM; GI50 [6, 28]: 0.07 µM; GI50 ([6]; Homo sapiens, HeLa, 72 h, 72 hours, present invention, read-out: GI50 Hela, a): 0.018 µM; GI50 ([7]; Homo sapiens, DU-145, 72 h, 72 hours, present invention, read-out: GI50 Du145, a): 0.004 µM; GI50 ([8]; Homo sapiens, MCF7, 72 h, 72 hours, present invention, read-out: GI50 MCF7, a): 0.001 µM; GI50 [11, 30]: 0.01 µM; GI50 ([11]; Homo sapiens, HT-1080, 72 h, 72 hours, present invention, read-out: GI50 HT1080, a): 0.033 µM; GI50 [13, 31]: 0.19 µM; GI50 ([13]; Homo sapiens, BGC-823, 72 h, 72 hours, present invention, read-out: GI50 BGC823, a): 0.11 µM; GI50 [14, 32]: 0.03 µM; GI50 ([14]; Homo sapiens, MOLT-4, 72 h, 72 hours, present invention, read-out: GI50 Molt-4, a): 0.018 µM; GI50 ([15]; Homo sapiens, PANC-1, 72 h, 72 hours, present invention, read-out: GI50 PANC-1, a): 0.19 µM; GI50 [15, 33]: 0.11 µM; IC50 (HDAC1; Table 2, read-out: IC50 HDAC1, a (compounds of the present invention)): < 0.05 µM
– | – | – | – | – | – | – | – | – | – | – | 0.092 | 0.085 | 0.018 | 0.051 | 0.089 | 0.049 | 0.033 | 0.052 | 0.011 | C/C=C1\NC(=O)c2ccc(SC)c(n2)CNC(=O)C[C@@H](/C=C/CCSC(=O)CCCCCCC)OC(=O)[C@H](Cc2ccccc2)NC1=O [Compound 191] | GI50 [2, 26]: 0.07 µM; GI50 [4, 27]: 0.03 µM; GI50 [6, 28]: 0.13 µM; GI50 ([7]; Homo sapiens, DU-145, 72 h, DU145 cells, 72 hours incubation, read-out: GI50 Du1): 0.04 µM; GI50 ([8]; Homo sapiens, MCF7, 72 h, MCF-7 cells, 72 hours incubation, read-out: GI50 MCF): 0.17 µM; GI50 [11, 30]: 0.05 µM; GI50 [13, 31]: 0.1 µM; GI50 [14, 32]: 0.05 µM; GI50 [15, 33]: 0.05 µM
– | 0.05 | – | 0.05 | – | 0.08 | 0.03 | 0.07 | – | – | 0.08 | 0.013 | – | 0.043 | 0.081 | 0.029 | 0.081 | 0.059 | 0.029 | 0.055 | C/C=C1\NC(=O)c2cc(F)cc(n2)CNC(=O)C[C@@H](/C=C/CCSC(=O)CCCCCCC)OC(=O)[C@H](CC)NC1=O [Compound 55] | GI50 ([13]; Homo sapiens, BGC-823, 72 h, 72 hours incubation, read-out: GI50 BG): 0.05 µM; GI50 [14, 23]: 0.02 µM; GI50 [15, 24]: 0.08 µM; IC50 (HDAC1; Table 3, column C, read-out: IC50 HDAC1, C (six-membered ring with substituents)): 0.013 µM; IC50 (HDAC11; [34]): 0.083 µM
0.023 | – | 0.049 | – | 0.059 | – | – | – | 0.038 | 0.062 | – | 0.155 | – | 0.052 | – | – | – | – | – | – | C/C=C1\NC(=O)c2nc(cc(SC)n2)CNC(=O)C[C@@H](/C=C/CCSC(C)=O)OC(=O)[C@H](C(C)C)NC1=O [Compound 216] | GI50 ([2]; A549 cells, 72 hours incubation, read-out: GI50 A54): 0.08 µM; GI50 ([4]; U937 cells, 72 hours incubation, read-out: GI50 U93): 0.08 µM; GI50 ([6]; Hela cells, 72 hours incubation, read-out: GI50 Hela): 0.07 µM; GI50 ([7]; DU145 cells, 72 hours incubation, read-out: GI50 Du1): 0.02 µM; GI50 ([8]; MCF-7 cells, 72 hours incubation, read-out: GI50 MCF): 0.05 µM; GI50 ([11]; HT1080 cells, 72 hours incubation, read-out: GI50 HT1): 0.05 µM; GI50 [12]: 0.037 µM; GI50 ([13]; BGC-823 cells, 72 hours incubation, read-out: GI50 BG): 0.06 µM; GI50 ([14]; MOLT-4 cells, 72 hours incubation, read-out: GI50 Mol): 0.04 µM; GI50 ([15]; PANC-1 cells, 72 hours incubation, read-out: GI50 PAN): 0.02 µM; IC50 (HDAC11; [34]): 0.081 µM
